Results published in patent US12662490B2, “Heterocyclic compounds” (Hoffmann-La Roche Inc., priority 2019, dated 2026).

Target: T1, MAGL (Homo sapiens, UniProt Q99685)
T1 sequence (Q99685 1-303): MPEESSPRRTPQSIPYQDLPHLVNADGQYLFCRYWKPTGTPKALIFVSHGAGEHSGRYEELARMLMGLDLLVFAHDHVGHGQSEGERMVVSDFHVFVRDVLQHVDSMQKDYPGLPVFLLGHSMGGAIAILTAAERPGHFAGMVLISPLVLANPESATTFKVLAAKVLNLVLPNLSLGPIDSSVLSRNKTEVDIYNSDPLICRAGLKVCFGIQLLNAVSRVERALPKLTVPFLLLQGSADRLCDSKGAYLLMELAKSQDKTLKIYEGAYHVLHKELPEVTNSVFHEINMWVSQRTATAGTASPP
Experiment: 2-AG assay (MAGL inhibitory activity; hydrolysis of 2-arachidonoylglycerol to arachidonic acid followed by mass spectrometry)
Type: biochemical
Conditions: 15 min preincubation at RT, 8 μM 2-arachidonoylglycerol, 30 min at RT, RapidFire MS readout
Summary of the method: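 Compounds (final 12.5 μM to […], 3-fold steps) preincubated 15 min at RT with MAGL ([…]) in 50 mM TRIS, 1 mM EDTA, Tween buffer. Reaction started with 8 μM 2-arachidonoylglycerol, run 30 min at RT, quenched with ACN containing d8-arachidonic acid. Arachidonic acid quantified by RapidFire SPE-triple quadrupole MS (negative ESI), activity from arachidonic acid/d8 ratio.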

Row | IC50 [nM] | SMILES
1 | 12.6 | COc1cccc(C(=O)N2CCN3C[C@@H](c4cc(Br)c(Cl)cn4)OC[C@@H]3C2)c1Cl [Example 107, (2-chloro-3-methoxy-phenyl)-[(3S,9aS)-3-[5-chloro-4-bromo-2-pyridyl]-3,4,6,7,9,9a-hexahydro-1H-pyrazino[2,1-c][1,4]oxazin-8-yl]methanone]
2 | 10.5 | O=C(c1cccc(N2CC(O)C2)c1Cl)N1CCN2C[C@@H](c3ccc(F)c(Cl)c3)OC[C@@H]2C1 [Example 108, [(3R,9aS)-3-(3-chloro-4-fluoro-phenyl)-3,4,6,7,9,9a-hexahydro-1H-pyrazino[2,1-c][1,4]oxazin-8-yl]-[2-chloro-3-(3-hydroxyazetidin-1-yl)phenyl]methanone]
3 | 1.6 | N#Cc1cc(-c2cccc(C(=O)N3CCN4C[C@@](O)(c5ccc(F)c(Cl)c5)OC[C@@H]4C3)c2Cl)c[nH]1 [Example 109, 4-[3-[(3R,9aS)-3-(3-chloro-4-fluoro-phenyl)-3-hydroxy-1,4,6,7,9,9a-hexahydropyrazino[2,1-c][1,4]oxazine-8-carbonyl]-2-chloro-phenyl]-1H-pyrrole-2-carbonitrile]
4 | 5 | COc1cccc(C(=O)N2CCN3C[C@@H](c4ccc(Br)c(Cl)c4)OC[C@@H]3C2)c1Cl [Example 110, [(3R,9aS)-3-(4-bromo-3-chloro-phenyl)-3,4,6,7,9,9a-hexahydro-1H-pyrazino[2,1-c][1,4]oxazin-8-yl]-(2-chloro-3-methoxy-phenyl)methanone]
5 | 5.8 | COc1ccc(F)c(C(=O)N2CCN3C[C@@H](c4ccc(F)c(Cl)c4)OC[C@@H]3C2)c1Cl [Example 111, [(3R,9aS)-3-(3-chloro-4-fluoro-phenyl)-3,4,6,7,9,9a-hexahydro-1H-pyrazino[2,1-c][1,4]oxazin-8-yl]-(2-chloro-6-fluoro-3-methoxy-phenyl)methanone]
6 | 7.6 | N#Cc1cc(-c2cccc(C(=O)N3CCN4C[C@@](O)(c5ccc(F)c(F)c5)OC[C@@H]4C3)c2Cl)c[nH]1 [Example 113, 4-[3-[(3R,9aS)-3-(3,4-difluorophenyl)-3-hydroxy-1,4,6,7,9,9a-hexahydropyrazino[2,1-c][1,4]oxazine-8-carbonyl]-2-chloro-phenyl]-1H-pyrrole-2-carbonitrile]
7 | 15.9 | COc1ccc(F)c(C(=O)N2CCN3C[C@@](O)(c4ccc(F)c(Cl)c4)OC[C@@H]3C2)c1Cl [Example 116, [(3R,9aS)-3-(3-chloro-4-fluoro-phenyl)-3-hydroxy-1,4,6,7,9,9a-hexahydropyrazino[2,1-c][1,4]oxazin-8-yl]-(2-chloro-6-fluoro-3-methoxy-phenyl)methanone]
8 | 34.7 | COc1cccc(C(=O)N2CCN3C[C@@](O)(c4ccc(C(F)(F)F)cc4)OC[C@@H]3C2)c1Cl [Example 119, [(3R,9aS)-3-hydroxy-3-[4-(trifluoromethyl)phenyl]-1,4,6,7,9,9a-hexahydropyrazino[2,1-c][1,4]oxazin-8-yl]-(2-chloro-3-methoxy-phenyl)methanone]
9 | 42.4 | COc1cccc(C(=O)N2CCN3C[C@@](O)(c4ccc(Cl)c(F)c4)OC[C@@H]3C2)c1Cl [Example 120, [(3R,9aS)-3-(4-chloro-3-fluoro-phenyl)-3-hydroxy-1,4,6,7,9,9a-hexahydropyrazino[2,1-c][1,4]oxazin-8-yl]-(2-chloro-3-methoxy-phenyl)methanone]
10 | 48.6 | O=C(c1cccc(-c2c[nH]c(=O)o2)c1Cl)N1CCN2C[C@@](O)(c3ccc(Cl)c(Cl)c3)OC[C@@H]2C1 [Example 122, 5-[3-[(3R,9aS)-3-(3,4-dichlorophenyl)-3-hydroxy-1,4,6,7,9,9a-hexahydropyrazino[2,1-c][1,4]oxazine-8-carbonyl]-2-chloro-phenyl]-3H-oxazol-2-one]
11 | 82.8 | COc1cccc(C(=O)N2CCN3C[C@@](O)(c4cc(Cl)cc(Br)c4)OC[C@@H]3C2)c1Cl [Example 125, [(3R,9aS)-3-(3-bromo-5-chloro-phenyl)-3-hydroxy-1,4,6,7,9,9a-hexahydropyrazino[2,1-c][1,4]oxazin-8-yl]-(2-chloro-3-methoxy-phenyl)methanone]
12 | 97.7 | O=C(c1cccc(-c2cnsc2)c1Cl)N1CCN2C[C@@](O)(c3ccc(F)c(Cl)c3)OC[C@@H]2C1 [Example 127, [(3R,9aS)-3-(3-chloro-4-fluoro-phenyl)-3-hydroxy-1,4,6,7,9,9a-hexahydropyrazino[2,1-c][1,4]oxazin-8-yl]-(2-chloro-3-isothiazol-4-yl-phenyl)methanone]
13 | 103 | COc1cccc(C(=O)N2CCN3C[C@@H](c4cc(F)c(F)cc4F)OC[C@@H]3C2)c1Cl [Example 128, [(3R,9aS)-3-(2,4,5-trifluorophenyl)-3,4,6,7,9,9a-hexahydro-1H-pyrazino[2,1-c][1,4]oxazin-8-yl]-(2-chloro-3-methoxy-phenyl)methanone]
14 | 113 | COc1cccc(C(=O)N2CCN3C[C@@](O)(c4ccc(Cl)cc4Cl)OC[C@@H]3C2)c1Cl [Example 129, [(3R,9aS)-3-(2,4-dichlorophenyl)-3-hydroxy-1,4,6,7,9,9a-hexahydropyrazino[2,1-c][1,4]oxazin-8-yl]-(2-chloro-3-methoxy-phenyl)methanone]

Further lines, the compound ahead of its results:

Row | SMILES | IC50 [nM]
15 | O=C(c1cccc(-c2cc[nH]c(=O)c2)c1Cl)N1CCN2C[C@@H](c3ccc(F)c(Cl)c3)OC[C@@H]2C1 [Example 105, 4-[3-[(3R,9aS)-3-(3-chloro-4-fluoro-phenyl)-3,4,6,7,9,9a-hexahydro-1H-pyrazino[2,1-c][1,4]oxazine-8-carbonyl]-2-chloro-phenyl]-1H-pyridin-2-one] | 8.9
16 | O=C(c1cccc(-c2ccc(=O)[nH]c2)c1Cl)N1CCN2C[C@@H](c3ccc(F)c(Cl)c3)OC[C@@H]2C1 [Example 106, 5-[3-[(3R,9aS)-3-(3-chloro-4-fluoro-phenyl)-3,4,6,7,9,9a-hexahydro-1H-pyrazino[2,1-c][1,4]oxazine-8-carbonyl]-2-chloro-phenyl]-1H-pyridin-2-one] | 14.3
17 | N#Cc1cc(-c2cc(F)cc(C(=O)N3CCN4C[C@@H](c5ccc(C(F)(F)F)[nH]c5=O)OC[C@@H]4C3)c2Cl)c[nH]1 [Example 112, 4-[3-[(3R,9aS)-3-[2-oxo-6-(trifluoromethyl)-1H-pyridin-3-yl]-3,4,6,7,9,9a-hexahydro-1H-pyrazino[2,1-c][1,4]oxazine-8-carbonyl]-2-chloro-5-fluoro-phenyl]-1H-pyrrole-2-carbonitrile] | 6.5
18 | O=C(c1cc(F)cc(-c2cc[nH]c(=O)c2)c1Cl)N1CCN2C[C@@H](c3ccc(F)c(Cl)c3)OC[C@@H]2C1 [Example 114, 4-[3-[(3R,9aS)-3-(3-chloro-4-fluoro-phenyl)-3,4,6,7,9,9a-hexahydro-1H-pyrazino[2,1-c][1,4]oxazine-8-carbonyl]-2-chloro-5-fluoro-phenyl]-1H-pyridin-2-one] | 10.8
19 | N#Cc1cc(-c2cc(F)cc(C(=O)N3CCN4C[C@@H](c5cc(Cl)c[nH]c5=O)OC[C@@H]4C3)c2Cl)c[nH]1 [Example 115, 4-[3-[(3R,9aS)-3-(5-chloro-2-oxo-1H-pyridin-3-yl)-3,4,6,7,9,9a-hexahydro-1H-pyrazino[2,1-c][1,4]oxazine-8-carbonyl]-2-chloro-5-fluoro-phenyl]-1H-pyrrole-2-carbonitrile] | 13.5
20 | N#Cc1cc(-c2cccc(C(=O)N3CCN4C[C@@H](c5cc(Cl)c[nH]c5=O)OC[C@@H]4C3)c2Cl)c[nH]1 [Example 117, 4-[3-[(3R,9aS)-3-(5-chloro-2-oxo-1H-pyridin-3-yl)-3,4,6,7,9,9a-hexahydro-1H-pyrazino[2,1-c][1,4]oxazine-8-carbonyl]-2-chloro-phenyl]-1H-pyrrole-2-carbonitrile] | 17.4
21 | O=C(c1cccc(-c2c[nH]c(=O)o2)c1Cl)N1CCN2C[C@@H](c3ccc(Cl)c(Cl)c3)OC[C@@H]2C1 [Example 118, 5-[3-[(3R,9aS)-3-(3,4-dichlorophenyl)-3,4,6,7,9,9a-hexahydro-1H-pyrazino[2,1-c][1,4]oxazine-8-carbonyl]-2-chloro-phenyl]-3H-oxazol-2-one] | 33.1
22 | O=C(c1cccc(-c2c[nH]c(=O)o2)c1Cl)N1CCN2C[C@@H](c3ccc(F)c(Cl)c3)OC[C@@H]2C1 [Example 121, 5-[3-[(3R,9aS)-3-(3-chloro-4-fluoro-phenyl)-3,4,6,7,9,9a-hexahydro-1H-pyrazino[2,1-c][1,4]oxazine-8-carbonyl]-2-chloro-phenyl]-3H-oxazol-2-one] | 46.4
23 | Cc1cc(-c2cccc(C(=O)N3CCN4C[C@@H](c5ccc(F)c(Cl)c5)OC[C@@H]4C3)c2Cl)cc(=O)[nH]1 [Example 123, 4-[3-[(3R,9aS)-3-(3-chloro-4-fluoro-phenyl)-3,4,6,7,9,9a-hexahydro-1H-pyrazino[2,1-c][1,4]oxazine-8-carbonyl]-2-chloro-phenyl]-6-methyl-1H-pyridin-2-one] | 55.7
24 | Cc1[nH]c(=O)ccc1-c1cccc(C(=O)N2CCN3C[C@@H](c4ccc(F)c(Cl)c4)OC[C@@H]3C2)c1Cl [Example 124, 5-[3-[(3R,9aS)-3-(3-chloro-4-fluoro-phenyl)-3,4,6,7,9,9a-hexahydro-1H-pyrazino[2,1-c][1,4]oxazine-8-carbonyl]-2-chloro-phenyl]-6-methyl-1H-pyridin-2-one] | 57.6
25 | O=C1CN(c2cccc(C(=O)N3CCN4C[C@@H](c5ccc(F)c(Cl)c5)OC[C@@H]4C3)c2Cl)CCN1 [Example 126, 4-[3-[(3R,9aS)-3-(3-chloro-4-fluoro-phenyl)-3,4,6,7,9,9a-hexahydro-1H-pyrazino[2,1-c][1,4]oxazine-8-carbonyl]-2-chloro-phenyl]piperazin-2-one] | 96.2
